Where two headings read alike, the source gives them in different places. Starred links: 1 amine or outer side, 2 acyl side, 3 side chain; linkers in the order of their positions; H or OH if unused. Non-standard residues stand in square brackets, D forms with d. Residues, ends and D or L forms follow the SMILES beside them. Groups on a side chain read outwards from the residue. No end group written: not given here. *: point of attachment. C20 diacid = O=C(O)CCCCCCCCCCCCCCCCCCC(=O)*; C18 diacid = O=C(O)CCCCCCCCCCCCCCCCC(=O)*; Phe(4-CN) = N#Cc1ccc(C[C@H](N)C(=O)O)cc1; αMePhe(2-F) = C[C@](N)(Cc1ccccc1F)C(=O)O; γGlu = O=C(O)[C@H](CCC(=O)[*:2])N[*:1]; αMe4Pal = C[C@](N)(Cc1ccncc1)C(=O)O; αMeY = C[C@](N)(Cc1ccc(O)cc1)C(=O)O; αMeF = C[C@](N)(Cc1ccccc1)C(=O)O; 4Pal = N[C@@H](Cc1ccncc1)C(=O)O; αMeL = CC(C)C[C@](C)(N)C(=O)O; αMeS = C[C@](N)(CO)C(=O)O; Orn = NCCC[C@H](N)C(=O)O; AEEA = NCCOCCOCC(=O)O; Aib = CC(C)(N)C(=O)O
Legend:
Type in all cases: cell-based
[1] = target: hGcgR (Homo sapiens, UniProt P47871); experiment: Functional cAMP activation in the presence of 0.1% casein (no HSA); settings: read-out: Relative cAMP EC50, hGcgR;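 also: intracellular cAMP rise after 30 min at 37 °C, read by HTRF against a cAMP standard curve, scaled from buffer only (0%) to maximal control ligand response (100%)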
hGcgR, sequence (P47871 26-477): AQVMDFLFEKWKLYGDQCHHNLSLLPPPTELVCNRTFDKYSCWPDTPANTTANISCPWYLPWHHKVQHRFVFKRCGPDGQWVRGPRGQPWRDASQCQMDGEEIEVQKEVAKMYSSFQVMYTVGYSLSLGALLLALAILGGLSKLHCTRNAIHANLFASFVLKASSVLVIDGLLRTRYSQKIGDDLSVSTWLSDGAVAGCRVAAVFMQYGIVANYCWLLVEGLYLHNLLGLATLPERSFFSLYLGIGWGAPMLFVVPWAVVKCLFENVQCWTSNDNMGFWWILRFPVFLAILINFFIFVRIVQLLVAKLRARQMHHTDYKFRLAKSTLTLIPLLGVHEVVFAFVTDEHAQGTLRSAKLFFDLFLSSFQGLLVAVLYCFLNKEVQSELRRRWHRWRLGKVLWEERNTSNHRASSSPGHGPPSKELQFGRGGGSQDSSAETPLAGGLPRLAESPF

[2] = target: T1, hGLP-1R (Homo sapiens, UniProt P43220); experiment: Functional cAMP activity in the presence of 1% HSA; settings: read-out: cAMP Rel EC50, hGLP-1R
T1 sequence (P43220 24-463): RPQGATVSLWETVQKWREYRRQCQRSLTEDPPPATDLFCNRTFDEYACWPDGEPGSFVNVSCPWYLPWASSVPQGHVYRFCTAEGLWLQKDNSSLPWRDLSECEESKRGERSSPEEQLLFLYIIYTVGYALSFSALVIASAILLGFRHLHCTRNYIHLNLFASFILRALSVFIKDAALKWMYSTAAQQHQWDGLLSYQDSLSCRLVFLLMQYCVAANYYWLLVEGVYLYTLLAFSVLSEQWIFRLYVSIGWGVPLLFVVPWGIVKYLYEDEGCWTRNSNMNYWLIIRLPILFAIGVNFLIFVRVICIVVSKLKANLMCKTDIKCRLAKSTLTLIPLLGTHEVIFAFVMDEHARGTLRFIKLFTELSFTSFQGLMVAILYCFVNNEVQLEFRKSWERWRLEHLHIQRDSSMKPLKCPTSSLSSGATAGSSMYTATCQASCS

[3] = target: T2, hGIPR (Homo sapiens, UniProt P48546); experiment: Functional cAMP activity in the presence of 1% HSA; settings: read-out: cAMP Rel EC50, hGIPR
T2 sequence (P48546 22-466): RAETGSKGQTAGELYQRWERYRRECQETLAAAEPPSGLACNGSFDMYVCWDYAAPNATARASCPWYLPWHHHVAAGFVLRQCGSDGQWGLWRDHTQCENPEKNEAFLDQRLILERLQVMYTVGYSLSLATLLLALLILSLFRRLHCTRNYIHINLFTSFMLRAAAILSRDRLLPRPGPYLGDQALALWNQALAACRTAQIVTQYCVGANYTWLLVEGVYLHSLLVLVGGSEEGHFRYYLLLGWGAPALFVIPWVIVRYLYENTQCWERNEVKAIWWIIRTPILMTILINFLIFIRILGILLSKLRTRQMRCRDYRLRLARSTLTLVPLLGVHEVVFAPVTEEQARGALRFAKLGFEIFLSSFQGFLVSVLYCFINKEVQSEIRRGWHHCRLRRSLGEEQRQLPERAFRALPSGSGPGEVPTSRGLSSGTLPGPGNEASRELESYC

[4] = target: T1, hGLP-1R; experiment: Functional cAMP activation in the presence of 0.1% casein (no HSA); settings: read-out: Relative cAMP EC50, hGLP-1R;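 as to Relative cAMP EC50, hGIPR: intracellular cAMP rise after 30 min at 37 °C read by HTRF against a standard curve, scaled between buffer alone (0%) and top control ligand concentration (100%), four-parameter fit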;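 as to Relative cAMP EC50, hGLP-1R: intracellular cAMP rise after 30 min at 37 °C read by HTRF, normalized between buffer only (0%) and maximal control ligand (100%), four-parameter variable-slope fit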
[5] = target: T2, hGIPR; experiment: as above; settings: read-out: Relative cAMP EC50, hGIPR
[6] = target: human GcgR (Homo sapiens, UniProt P47871); experiment: Functional cAMP activity in the presence of 1% HSA; settings: read-out: cAMP Rel EC50, hGcgR
human GcgR, sequence (P47871 26-477): as the sequence (P47871 26-477) above

[7] = in the presence of 0.1% casein (no HSA), geometric mean
[8] = in the presence of 0.1% casein (no HSA), geometric mean of relative EC50
[9] = HEK-293 clonal cell line, 1% HSA, geometric mean of relative EC50

Compound | EC50 [1, 7] | EC50 [2] | EC50 [3] | EC50 [4, 7] | EC50 [5, 7] | EC50 [6] | EC50 [1] | EC50 [4] | EC50 [5] | EC50 [1, 8] | EC50 [2, 9] | EC50 [3, 9] | EC50 [4, 8] | EC50 [5, 8] | EC50 [6, 9]
H-Y[Aib]QGTFTSD[4Pal]SQ[αMeL]LDKK([AEEA-γGlu-C18 diacid])AQ[αMe4Pal]AFIEYLIE[Aib]GPSSGAPPPEGS-NH2 [Example 851] | 3.38 nM | 428 nM | 24.4 nM | 3.06 nM | 0.215 nM | 558 nM | – | – | – | – | – | – | – | – | –
H-Y[Aib]QGT[αMePhe(2-F)]TSD[Phe(4-CN)]SKLLDKIAQK([AEEA-γGlu-C20 diacid])AFIEYLIEGGPSSGAPPPSGS-NH2 [Example 363] | 13.6 nM | 217 nM | 91.8 nM | 1.47 nM | 0.375 nM | 4080 nM | – | – | – | – | – | – | – | – | –
H-Y[Aib]QGT[αMePhe(2-F)]TSD[4Pal]SI[αMeL]LD[Orn]K([AEEA-γGlu-C18 diacid])AQ[αMe4Pal][Orn]FI[dE][αMeY]LIEGGPSSGAPPPESE-NH2 [Example 755] | – | 23.9 nM | 1.39 nM | – | – | 274 nM | 2.31 nM | 0.175 nM | 0.00805 nM | – | – | – | – | – | –
CC[C@H](C)[C@H](NC(=O)[C@H](Cc1ccccc1)NC(=O)[C@H](CCCN)NC(=O)C(C)(C)NC(=O)[C@H](CCC(N)=O)NC(=O)[C@H](C)NC(=O)[C@H](CCCCNC(=O)[C@H](CCC(=O)O)NC(=O)CC[C@H](NC(=O)CCCCCCCCCCCCCCCCC(=O)O)C(=O)O)NC(=O)[C@H](CCCN)NC(=O)[C@H](CC(=O)O)NC(=O)[C@H](CC(C)C)NC(=O)[C@](C)(CC(C)C)NC(=O)[C@@H](NC(=O)[C@](C)(CO)NC(=O)[C@H](Cc1ccncc1)NC(=O)[C@H](CC(=O)O)NC(=O)[C@H](CO)NC(=O)[C@@H](NC(=O)[C@](C)(Cc1ccccc1F)NC(=O)[C@@H](NC(=O)CNC(=O)[C@H](CCC(N)=O)NC(=O)C(C)(C)NC(=O)[C@@H](N)Cc1ccc(O)cc1)[C@@H](C)O)[C@@H](C)O)[C@@H](C)CC)C(=O)N[C@H](CCC(=O)O)C(=O)N[C@@](C)(Cc1ccc(O)cc1)C(=O)N[C@@H](CC(C)C)C(=O)N[C@@H](CCC(N)=O)C(=O)N[C@@H](CCC(=O)O)C(=O)NCC(=O)NCC(=O)N1CCC[C@H]1C(=O)N[C@@H](CO)C(=O)N[C@@H](CO)C(=O)NCC(=O)N[C@@H](CCC(=O)O)C(=O)N1CCC[C@H]1C(=O)N1CCC[C@H]1C(=O)N1CCC[C@H]1C(=O)N[C@@H](CCC(=O)O)C(=O)NCC(=O)N[C@H](C(=O)N[C@@H](CCC(=O)O)C(=O)N[C@@H](CCC(=O)O)C(N)=O)[C@@H](C)O [Example 593] | – | 35.3 nM | 2.71 nM | – | – | 591 nM | 6.57 nM | 0.495 nM | 0.0484 nM | – | – | – | – | – | –
Y[Aib]QGTFTSD[4Pal]SQ[αMeL]LDKK([AEEA-γGlu-C18 diacid])AQ[αMe4Pal]AFIEWLIEGGPSSGAPPPSG[4Pal]-NH2 [Example 832] | 9.1 nM | 209 nM | 18.6 nM | 1.07 nM | 0.187 nM | 1360 nM | – | – | – | – | – | – | – | – | –
Y[Aib]QGT[αMePhe(2-F)]TSD[4Pal]SI[αMeL]LD[Orn]K([AEEA-γGlu-C18 diacid])AQ[αMe4Pal]EFI[dE][αMeY]LIEGGPSSGAPPPSGE-NH2 [Example 614] | – | 33.2 nM | 0.597 nM | – | – | 724 nM | 6.36 nM | 0.251 nM | 0.0065 nM | – | – | – | – | – | –
H-Y[Aib]QGTFTSD[4Pal]SR[αMeL]LDKK([γGlu-γGlu-C18 diacid])AQ[αMe4Pal]AFIE[αMe4Pal]LIEGGPSSGAPPPSGS-NH2 [Example 953] | 2.75 nM | 347 nM | 10.9 nM | 2.63 nM | 0.111 nM | 275 nM | – | – | – | – | – | – | – | – | –
H-Y[Aib]QGT[αMePhe(2-F)]TSD[4Pal][αMeS]I[αMeL]LD[Orn]K([γGlu-γGlu-C18 diacid])AQ[αMe4Pal]EFI[dE][αMeY]LVEGGPSSGAPPPSGE-NH2 [Example 1160] | 2.41 nM | 31.2 nM | 0.598 nM | 0.365 nM | 0.00773 nM | 183 nM | – | – | – | – | – | – | – | – | –
H-Y[Aib]QGT[αMePhe(2-F)]TSD[4Pal][αMeS]ILLD[Orn]K([γGlu-γGlu-C18 diacid])AQ[Aib][Orn]FI[dE]YLIEGGPSSGEPPPSGTE-NH2 [Example 531] | – | 37.8 nM | 5.2 nM | – | – | 465 nM | 3.79 nM | 0.356 nM | 0.0694 nM | – | – | – | – | – | –
H-Y[Aib]QGT[αMePhe(2-F)]TSD[4Pal]SI[αMeL]LDKK([γGlu-γGlu-C18 diacid])AQ[Aib][Orn]FIEYLAEGGPSSGEPPPSGSEE-NH2 [Example 636] | – | – | – | – | – | – | – | – | – | 9.28 nM | 36.6 nM | 4.3 nM | 0.504 nM | 0.054 nM | 935 nM
H-Y[Aib]QGTFTSD[4Pal]S[Orn][αMeL]LDKK([γGlu-γGlu-C18 diacid])AQ[αMe4Pal]AFIEYLIAGGESSGAPPPSGSEE-NH2 [Example 964] | 2.75 nM | 267 nM | 21.4 nM | 2.67 nM | 0.288 nM | 324 nM | – | – | – | – | – | – | – | – | –
H-Y[Aib]QGTFTSD[4Pal][αMeS]I[αMeL]LD[Orn]K([dE-γGlu-C18 diacid])AQ[αMe4Pal]QFIQ[αMeY]LIE[Aib]GPSSGAPPPSGGGE-NH2 [Example 1136] | 1.26 nM | 39.2 nM | 0.949 nM | 0.453 nM | 0.0131 nM | 121 nM | – | – | – | – | – | – | – | – | –
CC[C@H](C)[C@H](NC(=O)[C@H](Cc1ccccc1)NC(=O)[C@H](C)NC(=O)C(C)(C)NC(=O)[C@H](CCC(N)=O)NC(=O)[C@H](C)NC(=O)[C@H](CCCCNC(=O)COCCOCCNC(=O)CC[C@H](NC(=O)CCCCCCCCCCCCCCCCC(=O)O)C(=O)O)NC(=O)[C@H](CCCCN)NC(=O)[C@H](CC(=O)O)NC(=O)[C@H](CC(C)C)NC(=O)[C@](C)(CC(C)C)NC(=O)[C@@H](NC(=O)[C@H](CO)NC(=O)[C@H](Cc1ccc(O)cc1)NC(=O)[C@H](CC(=O)O)NC(=O)[C@H](CO)NC(=O)[C@@H](NC(=O)[C@](C)(Cc1ccccc1)NC(=O)[C@@H](NC(=O)CNC(=O)[C@H](CCC(N)=O)NC(=O)C(C)(C)NC(=O)[C@@H](N)Cc1ccc(O)cc1)[C@@H](C)O)[C@@H](C)O)[C@@H](C)CC)C(=O)N[C@@H](CCC(=O)O)C(=O)N[C@@H](Cc1ccc(O)cc1)C(=O)N[C@@H](CC(C)C)C(=O)N[C@@H](CCC(=O)O)C(=O)N[C@@H](CCC(=O)O)C(=O)NCC(=O)NCC(=O)N1CCC[C@H]1C(=O)N[C@@H](CO)C(=O)N[C@@H](CO)C(=O)NCC(=O)N[C@@H](C)C(=O)N1CCC[C@H]1C(=O)N1CCC[C@H]1C(=O)N1CCC[C@H]1C(=O)N[C@@H](CCC(=O)O)C(N)=O [Example 396] (H-Y[Aib]QGT[αMeF]TSDYSI[αMeL]LDKK([AEEA-γGlu-C18 diacid])AQ[Aib]AFIEYLEEGGPSSGAPPPE-NH2) | – | 38.2 nM | 9.5 nM | – | – | 468 nM | 4.99 nM | 0.293 nM | 0.024 nM | – | – | – | – | – | –
H-Y[Aib]QGTFTSD[4Pal]SQ[αMeL]LD[Orn]K([AEEA-γGlu-C18 diacid])AQ[αMe4Pal]QFIE[αMeY]LIEGGPSSGAPPPSGS-NH2 [Example 857] | 6.21 nM | 87.3 nM | 36.1 nM | 0.433 nM | 0.441 nM | 1050 nM | – | – | – | – | – | – | – | – | –
Y[Aib]QGT[αMePhe(2-F)]TSD[4Pal][αMeS]I[αMeL]LD[Orn]K([AEEA-γGlu-C18 diacid])AA[Aib]EFI[dE][αMeY]LIEGGPSSGAPPPSGE-NH2 [Example 701] | – | 24.9 nM | 0.979 nM | – | – | 226 nM | 1.48 nM | 0.22 nM | 0.01 nM | – | – | – | – | – | –
H-Y[Aib]QGT[αMePhe(2-F)]TSD[4Pal][αMeS]I[αMeL]LD[Orn]K([γGlu-γGlu-C18 diacid])AQ[Aib][Orn]FI[dE]YLIEGGPSSGEPPPSGTGE-NH2 [Example 523] | – | 27.1 nM | 0.869 nM | – | – | 234 nM | 3.79 nM | 0.482 nM | 0.021 nM | – | – | – | – | – | –
H-Y[Aib]QGT[αMePhe(2-F)]TSD[4Pal][αMeS]I[αMeL]LD[Orn]K([AEEA-γGlu-C18 diacid])AA[Aib]EFI[dE][αMeY]LIEGGPSSGAPPPSGTEE-NH2 [Example 725] | – | 29.1 nM | 1.39 nM | – | – | 244 nM | 1.49 nM | 0.258 nM | 0.0126 nM | – | – | – | – | – | –
